According to ChEMBL document CHEMBL2331143, “Antiparkinsonian activity of some 9-N-, O-, S- and C-derivatives of 3-methyl-6-(prop-1-en-2-yl)cyclohex-3-ene-1,2-diol” (2013):

Assays:
Format in all cases: functional
Mus musculus [1] = experiment: Antiparkinsonian activity in MPTP C57Bl/6 mouse model assessed as movement speed at 20 mg/kg, po administered 24 hrs loast last dose of MPTP measured after 2 hrs post compound dose by open field test relative to saline-treated control
Mus musculus [2] = experiment: Antiparkinsonian activity in MPTP C57Bl/6 mouse model assessed as immobility time at 20 mg/kg, po administered 24 hrs loast last dose of MPTP measured after 2 hrs post compound dose by open field test relative to saline-treated control
Mus musculus [3] = experiment: Antiparkinsonian activity in MPTP C57Bl/6 mouse model assessed as movement distance at 20 mg/kg, po administered 24 hrs loast last dose of MPTP measured after 2 hrs post compound dose by open field test relative to saline-treated control
Mus musculus [4] = experiment: Antiparkinsonian activity in MPTP C57Bl/6 mouse model assessed as time of locomotor activity at 20 mg/kg, po administered 24 hrs loast last dose of MPTP measured after 2 hrs post compound dose by open field test relative to saline-treated control

C=C(C)[C@@H]1CC=C(C)[C@@H](O)[C@@H]1O
Activity (Mus musculus [1]): 2.6 cm/s
Time (Mus musculus [2]): 50.8 s
Activity (Mus musculus [3]): 302 cm
Time (Mus musculus [4]): 69.2 s

C=C(CN1CCOCC1)[C@@H]1CC=C(C)[C@@H](O)[C@@H]1O
Activity (Mus musculus [1]): 1.7 cm/s
Time (Mus musculus [2]): 71.5 s
Activity (Mus musculus [3]): 215.3 cm
Time (Mus musculus [4]): 48.5 s

C=C(CO)[C@@H]1CC=C(C)[C@@H](O)[C@@H]1O
Activity (Mus musculus [1]): 1.5 cm/s
Time (Mus musculus [2]): 80 s
Activity (Mus musculus [3]): 182.1 cm
Time (Mus musculus [4]): 37.2 s

C=C(CCCCC)[C@@H]1CC=C(C)[C@@H](O)[C@@H]1O
Activity (Mus musculus [1]): 2.7 cm/s
Time (Mus musculus [2]): 56.8 s
Activity (Mus musculus [3]): 335.2 cm
Time (Mus musculus [4]): 63.2 s

C=C1CO[C@H]2[C@H](O)C(C)=CC[C@@H]12
Activity (Mus musculus [1]): 1.7 cm/s
Time (Mus musculus [2]): 73.4 s
Activity (Mus musculus [3]): 214 cm
Time (Mus musculus [4]): 46.6 s

C=C(CNCCN(C)C)[C@@H]1CC=C(C)[C@@H](O)[C@@H]1O
Activity (Mus musculus [1]): 1.8 cm/s
Time (Mus musculus [2]): 68.8 s
Activity (Mus musculus [3]): 225 cm
Time (Mus musculus [4]): 51.2 s

C=C(CN1C(=O)c2ccccc2C1=O)[C@@H]1CC=C(C)[C@@H](O)[C@@H]1O
Activity (Mus musculus [1]): 2.3 cm/s
Time (Mus musculus [2]): 61.7 s
Activity (Mus musculus [3]): 280 cm
Time (Mus musculus [4]): 58.3 s

C=C(CSCCC)[C@@H]1CC=C(C)[C@@H](O)[C@@H]1O
Activity (Mus musculus [1]): 2.6 cm/s
Time (Mus musculus [2]): 58.6 s
Activity (Mus musculus [3]): 317.6 cm
Time (Mus musculus [4]): 61.4 s

C=C(CN)[C@@H]1CC=C(C)[C@@H](O)[C@@H]1O
Activity (Mus musculus [1]): 2 cm/s
Time (Mus musculus [2]): 66.5 s
Activity (Mus musculus [3]): 248.6 cm
Time (Mus musculus [4]): 53.5 s

C=C(CNC1C2CC3CC(C2)CC1C3)[C@@H]1CC=C(C)[C@@H](O)[C@@H]1O (stereo not given in full)
Activity (Mus musculus [1]): 1.2 cm/s
Time (Mus musculus [2]): 85.2 s
Activity (Mus musculus [3]): 149.7 cm
Time (Mus musculus [4]): 34.8 s
